Measurements published in US20240051997A1, “SAP AND PEPTIDOMIMETIC COMPOSITIONS FOR REDUCING SYMPTOMS OF INFLAMMATION” (Arch Biosurgery, Inc., priority 2018, published 2024).

Assays:
[1] = test system: kidney inflammation, ED-1 reactivity (macrophage activation); assay: Acute kidney injury model (stab wound plus cautery), ED-1 immunohistochemistry; assay type: in vivo, Sprague-Dawley rat; details: rat kidney, 3% solution of EARA-16 or 1% solution of KS
Method: The anti-inflammatory effects of EARA-16 (SEQ ID NO: 89) and a RADA-kidney specific peptide conjugate (Ac-(RADA)3CVSVPQAL-CONH2; SEQ ID NO: 413; referred to as KS) were examined. Specifically, the effects of EARA-16 and KS on inflammation caused by burn damage were examined using an acute kidney injury model. Levels of inflammation were assayed through immuno-histochemical ED-1 reactivity (ED-1 serves as a marker of macrophage activation).
Adult Sprague-Dawley rats were anesthetized and their intraperitoneal cavities were opened under aseptic conditions. For each animal, the kidney was exposed and then subjected to a stab wound injury.
Cautery was then performed at the injury site to stop bleeding. After cauterization, the injury site was either left untreated and the animals were closed or the site was treated with a 3% solution of EARA-16 (SEQ ID NO: 89) or a 1% solution of KS (SEQ ID NO: 413). The animals were allowed to survive for up to 14 days. The animals were then sacrificed and their kidneys were harvested and sectioned. An ED-1 antibody was used to determine the level of inflammation and activation of macrophages in the kidney via immunohistochemistry (IHC). For each experimental condition, n=3 (max).
Animals receiving no injury, but in which saline was applied to the kidney in a similar location to that of the experimental animals, were used as controls (n=8).

[2] = test system: olfactory bulb inflammation, GFAP (reactive astrocytes); assay: Olfactory bulb injury model (transection), GFAP immunohistochemistry; assay type: in vivo, Sprague-Dawley rat; details: rat olfactory bulb, days 2-14
Method: The anti-inflammatory effects of EARA-16 (SEQ ID NO: 89) and RADA-16 (SEQ ID NO: 1) were examined using an olfactory bulb injury model. Levels of inflammation were assayed through immunohistochemical staining for glial fibrillary acidic protein (GFAP) as an indicator of reactive astrocytes.
In brief, the olfactory bulbs of adult Sprague-Dawley rats were unilaterally transected and the cuts were then treated with either saline as a control, or one of RADA-16 (SEQ ID NO: 1) or EARA-16 (SEQ ID NO: 89) solutions (each used at 1% and 3%). The SAP materials were injected into the cuts post transection at the time of surgery. After 2, 7 or 14 days, the animals were sacrificed.
A more detailed protocol is as follows: adult Sprague-Dawley rats were anesthetized with a mixture of ketamine (80 mg/kg, i. p.) and xylazine (8 mg/kg, i. p.). The head was shaved and a thorough disinfection of the head surface was carried out with iodine 5% solution. The bilateral olfactory bulbs were exposed by drilling two burr holes (2 mm diameter, 8 mm anterior to the bregma) on either side at a distance of 2 mm from the midline of the frontal bone in the region overlying the olfactory bulbs. A cataract knife with a blunted end and one sharpened edge was used for surgery. The cut was performed on the middle of olfactory bulb. The blunted edge of the knife was inserted along the middle line of the olfactory bulb to prevent damage of the sagittal sinus, until the tip of the knife lightly touched the bottom of the brain without penetration of the dura. The knife was then moved laterally to transect the bulb until it reached the lateral edge of the hole. The knife was then rotated and pulled out to have a complete cut of the bulb at lateral side. This procedure was modified from the method described in several previous studies attempting to isolate the olfactory bulb from other parts of the brain (Ahrens & Freeman 2001; Allison 1953; Chaput 1983; Freeman 1968; Koliatsos et al 2004; Munirathinam et al 1997).
After performing the cut, one of the solutions was used to treat the injury site: either 10 μl saline (control group) or the EARA-16 (SEQ ID NO: 89) or RADA-16 (SEQ ID NO: 1) SAP (at a concentration of 1% and 3%) was injected evenly into the wound site using a self-constructed hydraulic pressure injection system without micro syringe. This technique was modified from similar methods as described by Bullier and others (Bullier et al 1980; Fish & Rhoades 1981; Kratskin et al 1997; Meyers & Snow 1981; Price et al 1977; Shipley 1982). Care was taken to control the speed of the injection of the saline or the SAP. After the injection, the wound was closed and the animals were placed in a warm place for recovery before they were brought back to their home cages. […]

[3] = test system: liver inflammation, ED-1 reactivity (macrophage activation); assay: Pig liver injury model (punch biopsy), ED-1 immunohistochemistry; assay type: in vivo; details: 8 mm punch biopsy, day 7 post-treatment, compared to saline or cauterization controls
Method: (§1) The anti-inflammatory effects of EARA-16 (SEQ ID NO: 89) and RADA-16 (SEQ ID NO: 1) SAPs were examined using a liver injury model. Levels of inflammation were assayed through immuno-histochemical ED-1 reactivity (ED-1 serves as a marker of macrophage activation).
(§2) Pigs or adult Sprague-Dawley rats were anesthetized and their intraperitoneal cavities were opened under aseptic conditions. For each animal, the liver was exposed and then subjected to an 8 mm (pig) or 4 mm (rat) punch biopsy.
(§3) The punch sites were then cauterized or treated with acid (for pH control), saline, or RADA-16 (SEQ ID NO: 1) or EARA-16 (SEQ ID NO: 89) solutions. The animals were allowed to survive for up to 14 days. The animals were then sacrificed and their livers were harvested and sectioned. An ED-1 antibody was used to determine the level of inflammation and activation of macrophages in the liver via immunohistochemistry (IHC).

[4] = test system: liver inflammation, ED-1 reactivity (macrophage activation); assay: Rat liver injury model (punch biopsy), ED-1 immunohistochemistry; assay type: in vivo, Sprague-Dawley rat; details: 4 mm punch biopsy, all time-points observed, compared to saline or acid controls
Method: as §1, §2, §3

## Ac-(RADA)3CVSVPQAL-CONH2 (Ac-RADARADARADACVSVPQAL-NH2) [KS, RADA-kidney specific peptide conjugate]
[1]; 7-day survival
  reduction in inflammation compared to cautery only (ED-1 IHC): 68%
[1]; 14-day survival
  reduction in inflammation compared to cautery only (ED-1 IHC): 66%

## EARAEARAEARAEARA [EARA-16, self-assembling peptide]
[2]; 1% solution
  time course of reactive astrocyte activation / inflammation (GFAP): increased activation of reactive astrocytes on day 7 which subsequently reduced by day 14
[2]; 3% solution
  time course of reactive astrocyte activation / inflammation (GFAP): increasing inflammation levels, but at a much slower rate than the saline controls
[1]; 7-day survival
  reduction in inflammation compared to cautery only (ED-1 IHC): 80%
[1]; 14-day survival
  reduction in inflammation compared to cautery only (ED-1 IHC): 66%
[3]
  levels of inflammation in liver (ED-1 IHC): markedly reduced the levels of inflammation
[4]
  levels of inflammation in liver (ED-1 IHC): markedly reduced the levels of inflammation
